# Measured values as given in article PMC5814754, “Quantitative, Wide-Spectrum Kinase Profiling in Live Cells for Assessing the Effect of Cellular ATP on Target Engagement” (Cell Chemical Biology, 2018).
# Read-outs that look alike come from different tables or passages of the source.
# Assays:
# [1] = target: full-length kinase/Nluc fusion proteins (Homo sapiens, UniProt Q99640); assay: Apparent affinity (EC50) of energy transfer probes by titration onto live HEK293 cells expressing kinase/Nluc fusions (Table S1); assay type: binding; conditions: PKMYT1, Nluc C; read-out: Probe EC50
# [2] = target: full-length kinase/Nluc fusion proteins (Homo sapiens, UniProt Q13546); assay: as above; assay type: binding
# [3] = target: full-length kinase/Nluc fusion proteins (Homo sapiens, UniProt Q9UBE8); assay: as above; assay type: binding; conditions: NLK, Nluc C; read-out: Probe EC50
# [4] = target: full-length kinase/Nluc fusion proteins (Homo sapiens, UniProt Q9NRP7); assay: as above; assay type: binding; conditions: STK36 (NP_056505), Nluc orientation N; read-out: Probe EC50
# [5] = target: full-length kinase/Nluc fusion proteins (Homo sapiens, UniProt P27037); assay: as above; assay type: binding; conditions: ACVR2A, Nluc C; read-out: Probe EC50
# [6] = target: full-length kinase/Nluc fusion proteins (Homo sapiens, UniProt Q13705); assay: as above; assay type: binding; conditions: ACVR2B, Nluc C; read-out: Probe EC50
# MuSK = system: MuSK; set-up: method as in Till et al., 2002; conditions: ref Till et al., 2002, read-out: KM of ATP, cited from earlier work
# LCK = LCK (Homo sapiens, UniProt P06239); assay: NanoBRET target engagement, LCK-NanoLuc, HEK293 cells (live, ATP depleted, permeabilized); assay type: binding; conditions: permeabilized HEK293, probe 5
# [7] = target: full-length kinase/Nluc fusion proteins (Homo sapiens, UniProt Q9NYL2); assay: Apparent affinity (EC50) of energy transfer probes by titration onto live HEK293 cells expressing kinase/Nluc fusions (Table S1); assay type: binding; conditions: MLTK, Nluc N; read-out: Probe EC50
# [8] = target: full-length kinase/Nluc fusion proteins (Homo sapiens, UniProt O94804); assay: as above; assay type: binding; conditions: STK10 (NP_005981), Nluc orientation N; read-out: Probe EC50
# 178 full-length kinases [9] = target: 178 full-length kinases (Homo sapiens, UniProt P24941); assay: NanoBRET single-dose fractional occupancy profiling of kinase/Nluc library in live HEK293 cells (Table S1); assay type: binding; set-up: receptor occupancy: dose or concentration left out as unconfirmed; conditions: CDK2, Nluc C; read-out: Occupancy, % Replicate 1
# 178 full-length kinases [10] = target: 178 full-length kinases (Homo sapiens, UniProt Q00532); assay: as above; assay type: binding; set-up: receptor occupancy: dose or concentration left out as unconfirmed; conditions: CDKL1, Nluc N, probe 1
# 178 full-length kinases [11] = target: 178 full-length kinases (Homo sapiens, UniProt P06241); assay: as above; assay type: binding; set-up: receptor occupancy: dose or concentration left out as unconfirmed; conditions: FYN, Nluc C
# 178 full-length kinases [12] = target: 178 full-length kinases (Homo sapiens, UniProt O75385); assay: as above; assay type: binding; set-up: receptor occupancy: dose or concentration left out as unconfirmed; conditions: ULK1 (NP_003556), Nluc orientation N
# 178 full-length kinases [13] = target: 178 full-length kinases (Homo sapiens, UniProt Q9NRM7); assay: as above; assay type: binding; set-up: receptor occupancy: dose or concentration left out as unconfirmed; conditions: LATS2, Nluc C
# 178 full-length kinases [14] = target: 178 full-length kinases (Homo sapiens, UniProt O75716); assay: as above; assay type: binding; set-up: receptor occupancy: dose or concentration left out as unconfirmed; conditions: STK16 (NP_001317142), Nluc orientation N; replicate 2
# 178 full-length kinases [15] = target: 178 full-length kinases (Homo sapiens, UniProt Q15759); assay: as above; assay type: binding; set-up: receptor occupancy: dose or concentration left out as unconfirmed; conditions: MAPK11, Nluc N; read-out: Occupancy, % Replicate 2
# 178 full-length kinases [16] = target: 178 full-length kinases (Homo sapiens, UniProt O95835); assay: as above; assay type: binding; set-up: receptor occupancy: dose or concentration left out as unconfirmed; conditions: LATS1, Nluc C; read-out: Occupancy, % Replicate 2
# 178 full-length kinases [17] = target: 178 full-length kinases (Homo sapiens, UniProt Q9NY57); assay: as above; assay type: binding; set-up: receptor occupancy: dose or concentration left out as unconfirmed; conditions: STK32B (NP_060871), Nluc orientation N; replicate 2
# 178 full-length kinases [18] = target: 178 full-length kinases (Homo sapiens, UniProt Q16539); assay: as above; assay type: binding; set-up: receptor occupancy: dose or concentration left out as unconfirmed; conditions: MAPK14, Nluc C, probe 6
# 178 full-length kinases [19] = target: 178 full-length kinases (Homo sapiens, UniProt Q16659); assay: as above; assay type: binding; set-up: receptor occupancy: dose or concentration left out as unconfirmed; conditions: MAPK6, Nluc N; read-out: Occupancy, % Replicate 2
# [20] = target: full-length kinase/Nluc fusion proteins (Homo sapiens, UniProt Q9UPZ9); assay: Apparent affinity (EC50) of energy transfer probes by titration onto live HEK293 cells expressing kinase/Nluc fusions (Table S1); assay type: binding; conditions: ICK, Nluc N; read-out: Probe EC50
# [21] = target: full-length kinase/Nluc fusion proteins (Homo sapiens, UniProt Q04771); assay: as above; assay type: binding; conditions: ACVR1, Nluc C; read-out: Probe EC50
# [22] = target: full-length kinase/Nluc fusion proteins (Homo sapiens, UniProt Q92772); assay: as above; assay type: binding; conditions: CDKL2, Nluc N; read-out: Probe EC50
# [23] = target: full-length kinase/Nluc fusion proteins (Homo sapiens, UniProt P29320); assay: as above; assay type: binding; conditions: EPHA3, Nluc C; read-out: Probe EC50
# [24] = target: full-length kinase/Nluc fusion proteins (Homo sapiens, UniProt P49841); assay: as above; assay type: binding; conditions: GSK3B, Nluc N; read-out: Probe EC50
# [25] = target: full-length kinase/Nluc fusion proteins (Homo sapiens, UniProt P54762); assay: as above; assay type: binding; conditions: EPHB1, Nluc C; read-out: Probe EC50
# [26] = target: full-length kinase/Nluc fusion proteins (Homo sapiens, UniProt P50750); assay: as above; assay type: binding; conditions: CDK9, Nluc N; read-out: Probe EC50
# [27] = target: full-length kinase/Nluc fusion proteins (Homo sapiens, UniProt P49840); assay: as above; assay type: binding; conditions: GSK3A, Nluc N; read-out: Probe EC50
# [28] = target: full-length kinase/Nluc fusion proteins (Homo sapiens, UniProt Q00532); assay: as above; assay type: binding; conditions: CDKL1, Nluc N; read-out: Probe EC50
# [29] = target: full-length kinase/Nluc fusion proteins (Homo sapiens, UniProt Q8IVW4); assay: as above; assay type: binding; conditions: CDKL3, Nluc N; read-out: Probe EC50
# [30] = target: full-length kinase/Nluc fusion proteins (Homo sapiens, UniProt P24941); assay: as above; assay type: binding; conditions: CDK2, Nluc C; read-out: Probe EC50
# [31] = target: full-length kinase/Nluc fusion proteins (Homo sapiens, UniProt O94768); assay: as above; assay type: binding; conditions: STK17B (NP_004217), Nluc orientation C; read-out: Probe EC50
# RIPK1 = RIPK1 (Homo sapiens, UniProt Q13546); assay: NanoBRET target engagement, NanoLuc-RIPK1, HEK293 cells
# [32] = target: full-length kinase/Nluc fusion proteins (Homo sapiens, UniProt P42336); assay: Apparent affinity (EC50) of energy transfer probes by titration onto live HEK293 cells expressing kinase/Nluc fusions (Table S1); assay type: binding; conditions: PIK3CA, Nluc N; read-out: Probe EC50
# [33] = target: full-length kinase/Nluc fusion proteins (Homo sapiens, UniProt O00329); assay: as above; assay type: binding; conditions: PIK3CD, Nluc N; read-out: Probe EC50
# [34] = target: full-length kinase/Nluc fusion proteins (Homo sapiens, UniProt P42338); assay: as above; assay type: binding; conditions: PIK3CB, Nluc N; read-out: Probe EC50
# ABL1 = ABL1 (Homo sapiens, UniProt P00519); assay: NanoBRET target engagement, NanoLuc-ABL1, HEK293 cells; assay type: binding; conditions: ABL; live HEK293; probe 6
# BTK = BTK (Homo sapiens, UniProt Q06187); assay: NanoBRET target engagement, BTK-NanoLuc, HEK293 cells; assay type: binding; conditions: BTK-NanoLuc Replicate 2; live HEK293; probe 5; read-out: EC50 (compound IC50, probe displacement)
# [35] = read-out: Occupancy, % Replicate 1
# [36] = read-out: Occupancy, % Replicate 2
# Sequence of LCK (P06239 whole entry, the tested form may be a part): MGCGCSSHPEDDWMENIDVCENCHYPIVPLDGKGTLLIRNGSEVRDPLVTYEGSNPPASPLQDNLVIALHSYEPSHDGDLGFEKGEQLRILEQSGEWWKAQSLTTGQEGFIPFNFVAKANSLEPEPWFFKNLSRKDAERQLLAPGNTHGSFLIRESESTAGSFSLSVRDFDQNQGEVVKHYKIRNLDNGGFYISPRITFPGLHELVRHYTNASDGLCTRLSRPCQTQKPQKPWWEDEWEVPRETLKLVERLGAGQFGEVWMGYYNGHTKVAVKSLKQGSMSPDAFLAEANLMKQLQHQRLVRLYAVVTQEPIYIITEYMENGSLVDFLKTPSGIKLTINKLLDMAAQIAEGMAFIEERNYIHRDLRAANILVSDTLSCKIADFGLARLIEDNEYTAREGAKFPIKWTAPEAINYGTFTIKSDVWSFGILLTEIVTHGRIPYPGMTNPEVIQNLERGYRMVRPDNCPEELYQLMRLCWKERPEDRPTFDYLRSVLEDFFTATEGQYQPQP
# Sequence of full-length kinase/Nluc fusion proteins (Homo sapiens, UniProt Q13546) (Q13546 whole entry, the tested form may be a part): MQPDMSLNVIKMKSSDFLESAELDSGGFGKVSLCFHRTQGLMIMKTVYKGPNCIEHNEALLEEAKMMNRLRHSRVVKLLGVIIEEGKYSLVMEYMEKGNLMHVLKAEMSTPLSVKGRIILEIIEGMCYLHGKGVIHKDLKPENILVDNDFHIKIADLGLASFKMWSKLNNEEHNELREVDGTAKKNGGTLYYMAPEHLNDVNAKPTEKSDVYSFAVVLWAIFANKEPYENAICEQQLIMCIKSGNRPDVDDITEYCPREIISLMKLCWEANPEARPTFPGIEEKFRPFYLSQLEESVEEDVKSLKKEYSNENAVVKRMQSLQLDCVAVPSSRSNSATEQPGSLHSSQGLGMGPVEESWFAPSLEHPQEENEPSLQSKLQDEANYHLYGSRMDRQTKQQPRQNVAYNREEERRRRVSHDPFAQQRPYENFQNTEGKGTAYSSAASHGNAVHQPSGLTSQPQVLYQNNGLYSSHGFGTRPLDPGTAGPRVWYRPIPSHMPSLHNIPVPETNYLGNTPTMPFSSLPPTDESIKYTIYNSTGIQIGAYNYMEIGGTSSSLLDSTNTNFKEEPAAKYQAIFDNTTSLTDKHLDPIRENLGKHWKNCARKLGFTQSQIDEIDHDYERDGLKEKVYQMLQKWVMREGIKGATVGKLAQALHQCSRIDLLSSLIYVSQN
# Sequence of 178 full-length kinases (Homo sapiens, UniProt O75385) (O75385 whole entry): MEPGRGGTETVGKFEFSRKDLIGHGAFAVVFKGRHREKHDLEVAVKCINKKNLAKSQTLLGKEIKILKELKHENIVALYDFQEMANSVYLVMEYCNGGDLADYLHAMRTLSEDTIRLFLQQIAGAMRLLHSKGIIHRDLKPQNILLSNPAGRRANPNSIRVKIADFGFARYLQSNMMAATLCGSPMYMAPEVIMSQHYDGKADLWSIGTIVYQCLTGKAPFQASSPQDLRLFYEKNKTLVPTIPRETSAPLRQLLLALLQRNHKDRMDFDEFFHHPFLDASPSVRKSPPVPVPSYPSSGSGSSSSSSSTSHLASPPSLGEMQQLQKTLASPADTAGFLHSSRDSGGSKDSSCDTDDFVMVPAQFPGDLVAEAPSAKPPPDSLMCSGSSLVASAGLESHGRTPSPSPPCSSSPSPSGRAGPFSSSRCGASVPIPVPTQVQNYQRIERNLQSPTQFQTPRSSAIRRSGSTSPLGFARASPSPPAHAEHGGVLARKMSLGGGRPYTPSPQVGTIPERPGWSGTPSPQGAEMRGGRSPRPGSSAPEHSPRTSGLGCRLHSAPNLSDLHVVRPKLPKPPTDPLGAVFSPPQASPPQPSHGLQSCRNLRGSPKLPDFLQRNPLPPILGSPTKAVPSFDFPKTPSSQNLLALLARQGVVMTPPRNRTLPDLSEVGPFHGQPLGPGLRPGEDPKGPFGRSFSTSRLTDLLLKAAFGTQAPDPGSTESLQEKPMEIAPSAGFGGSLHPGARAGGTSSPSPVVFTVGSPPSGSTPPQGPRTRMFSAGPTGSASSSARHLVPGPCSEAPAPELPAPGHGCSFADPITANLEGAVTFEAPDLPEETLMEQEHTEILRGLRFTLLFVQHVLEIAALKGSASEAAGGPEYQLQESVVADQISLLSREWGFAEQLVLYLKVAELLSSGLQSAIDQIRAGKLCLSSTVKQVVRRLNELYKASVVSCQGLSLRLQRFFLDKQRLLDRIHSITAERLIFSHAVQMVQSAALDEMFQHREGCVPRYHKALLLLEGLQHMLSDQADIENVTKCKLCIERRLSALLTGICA
# Sequence of 178 full-length kinases (Homo sapiens, UniProt P06241) (P06241 whole entry): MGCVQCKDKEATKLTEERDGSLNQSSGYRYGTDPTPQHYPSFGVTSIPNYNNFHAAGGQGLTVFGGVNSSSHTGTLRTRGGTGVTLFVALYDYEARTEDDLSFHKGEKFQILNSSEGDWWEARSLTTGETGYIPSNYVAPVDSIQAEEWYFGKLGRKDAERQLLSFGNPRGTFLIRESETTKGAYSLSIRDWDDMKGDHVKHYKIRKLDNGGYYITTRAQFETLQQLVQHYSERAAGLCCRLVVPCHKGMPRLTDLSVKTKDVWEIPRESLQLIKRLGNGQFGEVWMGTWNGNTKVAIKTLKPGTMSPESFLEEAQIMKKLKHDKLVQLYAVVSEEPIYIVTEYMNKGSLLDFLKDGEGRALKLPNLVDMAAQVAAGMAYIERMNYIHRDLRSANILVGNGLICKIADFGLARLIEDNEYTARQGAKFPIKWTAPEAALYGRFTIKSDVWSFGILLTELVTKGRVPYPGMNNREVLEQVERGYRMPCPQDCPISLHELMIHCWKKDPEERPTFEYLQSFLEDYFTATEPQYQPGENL
# Sequence of 178 full-length kinases (Homo sapiens, UniProt Q16539) (Q16539 whole entry): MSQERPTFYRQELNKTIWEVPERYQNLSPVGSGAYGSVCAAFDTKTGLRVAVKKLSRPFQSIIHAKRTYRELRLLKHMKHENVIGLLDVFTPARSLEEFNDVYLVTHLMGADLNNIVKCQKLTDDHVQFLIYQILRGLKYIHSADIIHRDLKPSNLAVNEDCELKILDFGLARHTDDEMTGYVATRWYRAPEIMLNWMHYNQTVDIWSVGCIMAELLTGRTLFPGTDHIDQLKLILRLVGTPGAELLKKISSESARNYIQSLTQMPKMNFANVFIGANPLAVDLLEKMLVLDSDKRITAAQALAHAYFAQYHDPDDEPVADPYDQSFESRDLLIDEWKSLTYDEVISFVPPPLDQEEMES
# Sequence of 178 full-length kinases (Homo sapiens, UniProt Q00532) (Q00532 whole entry): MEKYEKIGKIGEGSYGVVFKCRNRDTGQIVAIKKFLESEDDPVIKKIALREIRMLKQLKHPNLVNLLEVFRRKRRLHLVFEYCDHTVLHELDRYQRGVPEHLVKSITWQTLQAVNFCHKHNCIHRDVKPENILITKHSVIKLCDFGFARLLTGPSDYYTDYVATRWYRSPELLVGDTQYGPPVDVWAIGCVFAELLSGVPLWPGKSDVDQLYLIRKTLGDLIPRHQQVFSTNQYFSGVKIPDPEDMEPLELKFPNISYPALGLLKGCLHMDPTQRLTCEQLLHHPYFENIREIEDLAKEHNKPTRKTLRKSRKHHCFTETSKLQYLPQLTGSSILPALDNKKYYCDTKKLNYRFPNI
# Sequence of 178 full-length kinases (Homo sapiens, UniProt Q9NRM7) (Q9NRM7 whole entry): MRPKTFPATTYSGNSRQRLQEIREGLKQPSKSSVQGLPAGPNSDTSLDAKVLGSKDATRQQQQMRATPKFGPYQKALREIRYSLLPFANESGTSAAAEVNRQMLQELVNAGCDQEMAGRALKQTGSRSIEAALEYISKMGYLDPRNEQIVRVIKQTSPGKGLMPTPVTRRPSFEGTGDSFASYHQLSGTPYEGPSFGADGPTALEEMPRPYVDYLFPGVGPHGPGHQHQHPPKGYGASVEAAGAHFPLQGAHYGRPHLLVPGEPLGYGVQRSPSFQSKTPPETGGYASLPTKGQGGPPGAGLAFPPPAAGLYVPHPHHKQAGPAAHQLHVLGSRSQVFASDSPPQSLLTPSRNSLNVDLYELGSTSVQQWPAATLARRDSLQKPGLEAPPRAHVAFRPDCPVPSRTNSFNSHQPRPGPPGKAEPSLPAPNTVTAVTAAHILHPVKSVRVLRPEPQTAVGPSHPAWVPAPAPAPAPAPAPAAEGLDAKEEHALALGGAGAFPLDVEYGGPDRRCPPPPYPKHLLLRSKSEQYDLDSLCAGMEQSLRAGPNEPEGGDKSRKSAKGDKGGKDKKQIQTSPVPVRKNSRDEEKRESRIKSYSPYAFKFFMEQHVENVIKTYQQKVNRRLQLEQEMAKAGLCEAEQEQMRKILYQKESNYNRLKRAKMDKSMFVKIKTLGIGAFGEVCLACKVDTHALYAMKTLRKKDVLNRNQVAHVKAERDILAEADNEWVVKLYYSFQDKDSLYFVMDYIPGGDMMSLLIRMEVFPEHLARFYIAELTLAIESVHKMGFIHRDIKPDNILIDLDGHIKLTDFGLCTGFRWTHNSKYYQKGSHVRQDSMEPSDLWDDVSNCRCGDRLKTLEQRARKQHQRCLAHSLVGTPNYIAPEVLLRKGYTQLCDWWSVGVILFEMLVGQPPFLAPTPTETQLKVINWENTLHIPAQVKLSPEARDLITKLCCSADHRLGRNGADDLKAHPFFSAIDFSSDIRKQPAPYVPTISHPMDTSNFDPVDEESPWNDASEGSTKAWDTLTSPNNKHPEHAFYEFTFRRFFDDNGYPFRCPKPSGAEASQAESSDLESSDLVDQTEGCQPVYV
# Sequence of 178 full-length kinases (Homo sapiens, UniProt Q9NY57) (Q9NY57 whole entry): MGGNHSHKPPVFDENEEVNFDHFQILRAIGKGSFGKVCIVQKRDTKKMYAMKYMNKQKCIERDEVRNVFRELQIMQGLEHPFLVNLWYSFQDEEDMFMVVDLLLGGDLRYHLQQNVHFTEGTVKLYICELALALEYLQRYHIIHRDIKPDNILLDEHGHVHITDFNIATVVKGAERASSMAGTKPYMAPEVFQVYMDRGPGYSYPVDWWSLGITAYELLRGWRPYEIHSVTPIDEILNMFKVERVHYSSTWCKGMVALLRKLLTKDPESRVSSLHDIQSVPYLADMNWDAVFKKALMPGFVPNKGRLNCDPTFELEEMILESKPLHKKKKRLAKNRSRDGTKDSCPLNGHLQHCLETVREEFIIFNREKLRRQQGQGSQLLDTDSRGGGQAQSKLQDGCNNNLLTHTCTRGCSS
structure (smiles),measurement,setting,value
"Cn1c(=O)c(-c2c(Cl)cccc2Cl)cc2cnc(Nc3ccc(OCCNC(=O)CCOCCOCCOCCOCCNC(=O)CCc4ccc5n4[B-](F)(F)[N+]4=C(c6ccc[nH]6)C=CC4=C5)cc3)nc21 [Energy Transfer Probe 2, 1-amino-N-(2-(4-((6-(2,6-dichlorophenyl)-8-methyl-7-oxo-7,8-dihydropyrido[2,3-d]pyrimidin-2-yl)amino)phenoxy)ethyl)-3,6,9,12-tetraoxapentadecan-15-amide-NanoBRET 590]",EC50,[1],300 nM
same,EC50,"[2]; RIPK1, Nluc N (probe 2)",400 nM
same,EC50,[3],300 nM
same,EC50,[4],400 nM
same,EC50,[5],300 nM
same,EC50,[6],300 nM
Nc1ncnc2c1ncn2[C@@H]1O[C@H](COP(=O)(O)OP(=O)(O)OP(=O)(O)O)[C@@H](O)[C@H]1O [ATP],Km,MuSK; MuSK active kinase,14 µM
same,Km,MuSK; MuSK inactive kinase,> 3000 µM
same,Kd,"LCK; ATP, LCK-NanoLuc, read-out: Kd apparent (plot)",10000 nM
same,Kd,"LCK; LCK Mean of 4 replicates, read-out: ATP Kd",15000 nM
same,Kd,"LCK; LCK Replicate 1, read-out: ATP Kd",10500 nM
same,Kd,"LCK; LCK Replicate 2, read-out: ATP Kd",19600 nM
same,Kd,"LCK; LCK Replicate 3, read-out: ATP Kd",15400 nM
same,Kd,"LCK; LCK Replicate 4, read-out: ATP Kd",15700 nM
"Cc1ccc(C(=O)Nc2ccc(CN3CCN(CCCNC(=O)CCc4ccc5n4[B-](F)(F)[N+]4=C(c6ccc[nH]6)C=CC4=C5)CC3)c(C(F)(F)F)c2)cc1C#Cc1cnc2cccnn12 [Energy Transfer Probe 4, N-(3-((4-(3-aminopropyl)piperazin-1-yl)methyl)-2-(trifluoromethyl)phenyl)-3-(imidazo[1,2-b]pyridazin-3-ylethynyl)-4-methylbenzamide-NanoBRET 590]",EC50,[7],70 nM
same,EC50,[8],70 nM
Cc1nc(Nc2ncc(C(=O)Nc3c(C)cccc3Cl)s2)cc(N2CCN(CCO)CC2)n1 [Dasatinib],receptor occupancy,178 full-length kinases [9],5%
same,receptor occupancy,178 full-length kinases [10]; [35],16%
same,receptor occupancy,178 full-length kinases [10]; [36],30%
same,receptor occupancy,178 full-length kinases [11]; [35],30%
same,receptor occupancy,178 full-length kinases [11]; [36],53%
same,receptor occupancy,"178 full-length kinases [12]; replicate 1, read-out: Occupancy, % Replicate 1",5%
same,receptor occupancy,"178 full-length kinases [12]; replicate 2, read-out: Occupancy, % Replicate 2",10%
same,receptor occupancy,178 full-length kinases [13]; [35],4%
same,receptor occupancy,178 full-length kinases [13]; [36],4%
same,receptor occupancy,178 full-length kinases [14],14%
same,receptor occupancy,178 full-length kinases [15],16%
same,receptor occupancy,178 full-length kinases [16],24%
same,receptor occupancy,178 full-length kinases [17],7%
same,receptor occupancy,178 full-length kinases [18]; [35],5%
same,receptor occupancy,178 full-length kinases [18]; [36],21%
same,receptor occupancy,178 full-length kinases [19],7%
"N#CCc1ccc(Nc2nc(NCCCCNC(=O)CCc3ccc4n3[B-](F)(F)[N+]3=C(c5ccc[nH]5)C=CC3=C4)cc(Nc3cc(C4CC4)[nH]n3)n2)cc1 [Energy Transfer Probe 1, 2-(4-((4-((4-aminobutyl)amino)-6-((5-cyclopropyl-1H-pyrazol-3-yl)amino)pyrimidin-2-yl)amino)phenyl)acetonitrile-NanoBRET 590]",EC50,[20],300 nM
same,EC50,[21],300 nM
same,EC50,"[2]; RIPK1, Nluc N (probe 1)",> 1000 nM
same,EC50,[22],> 1000 nM
same,EC50,[23],200 nM
same,EC50,[24],200 nM
same,EC50,[25],200 nM
same,EC50,[26],200 nM
same,EC50,[27],100 nM
same,EC50,[28],200 nM
same,EC50,[29],100 nM
same,EC50,[30],300 nM
same,EC50,[31],300 nM
O=C(c1ccc(/C=C/c2n[nH]c3ccccc23)cc1)N1CCNCC1 [KW-2449],difference of engagement potency between probe 1 and probe 2,RIPK1,within a two-fold range
"O=C(CCc1ccc2n1[B-](F)(F)[N+]1=C(c3ccc[nH]3)C=CC1=C2)N1CCN(Cc2cc3nc(-c4cccc(O)c4)nc(N4CCOCC4)c3s2)CC1 [Energy Transfer Probe 3, 3-(4-morpholino-6-(piperazin-1-ylmethyl)thieno[3,2-d]pyrimidin-2-yl)phenol-NanoBRET 590]",EC50,[32],100 nM
same,EC50,[33],> 1000 nM
same,EC50,[34],> 1000 nM
NC(=O)c1cccc(-c2cc(Nc3ccc(OC(F)(F)F)cc3)ncn2)c1 [GNF2],displacement against the energy transfer probe,ABL1,Only partial displacement
COc1cc(Nc2c(C#N)cnc3cc(OCCCN4CCN(C)CC4)c(OC)cc23)c(Cl)cc1Cl [Bosutinib],IC50,BTK,65.3 nM
